In the experiment the target is Scavenger receptor class B member 1 (Mus musculus) (UniProt Q61009). Description: activators of SR-BI-mediated HDL uptake, dose response, cell-based, ldlA[mSR-BI] CHO, DiI fluorescence, cherry-pick (AID 602191).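 Further: cell fluorescence from internalized DiI-labeled HDL after washing.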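 On AC40: potency of activators raising HDL uptake.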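 On activation (HDL uptake increase): 0% = median of DMSO wells and 100% = twice the DMSO signal.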 The settings on record: ldlA[mSR-BI] CHO cells, 3 h.

SMILES strings stand for the structures. The source made the active and inactive calls.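 How the source made its calls: active means fitted curve reaches 40% activation at a concentration no higher than the top valid tested dose; inconclusive means flat fit between 30% and 70% activation, or poor fit; inactive means uptake decrease, flat fit within 30% of zero, the rest.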

Here are results for 74 molecules from PubChem BioAssay AID602191 (Broad Institute, 2012).

Sequence of Scavenger receptor class B member 1 (Mus musculus) (Q61009 whole entry, looked up): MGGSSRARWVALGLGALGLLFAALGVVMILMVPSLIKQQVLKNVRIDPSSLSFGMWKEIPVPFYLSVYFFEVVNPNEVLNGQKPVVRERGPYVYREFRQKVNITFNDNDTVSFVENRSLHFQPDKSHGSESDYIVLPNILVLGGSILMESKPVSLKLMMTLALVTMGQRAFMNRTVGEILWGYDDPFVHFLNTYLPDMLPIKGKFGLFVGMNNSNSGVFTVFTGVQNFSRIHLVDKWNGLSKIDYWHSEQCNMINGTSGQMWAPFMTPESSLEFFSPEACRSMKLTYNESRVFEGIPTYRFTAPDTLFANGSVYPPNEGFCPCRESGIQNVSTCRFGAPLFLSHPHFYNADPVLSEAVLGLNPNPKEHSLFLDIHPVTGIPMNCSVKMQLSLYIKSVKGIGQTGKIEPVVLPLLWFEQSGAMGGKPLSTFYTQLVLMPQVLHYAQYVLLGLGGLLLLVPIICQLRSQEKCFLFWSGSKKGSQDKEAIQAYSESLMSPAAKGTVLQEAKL

As to `CC(C)(C)OC(=O)C[C@H]1C/C=C\C[C@H](CC(=O)NCCO)C(=O)NCCOC1=O`, the activation (HDL uptake increase) (at 35 µM (top of the series)) was -2.75% (inactive).
With `OC(Cc1ccccc1)(c1ccccc1)C1CN2CCC1CC2` (centres undefined), the activation (HDL uptake increase) (at 35 µM (top of the series)) is -3.56% (inactive).
The same measure, in the same setting: for `O=C1NC2NC(=O)N(C(Cc3ccccc3)C(=O)O)C2N1` (centres undefined) the value was -4.43% (inactive); for `CCN1CCN(C(=O)C2CCC(=O)N(Cc3cccc(C(F)(F)F)c3)C2)CC1` (centres undefined), -0.502% (inactive).
The same measure, in the same setting: to `COc1cc(C(CCN2CCCC(C)C2)c2c(OC)cc(OC)c3c(-c4ccccc4)cc(=O)oc23)cc(OC)c1OC` (centres undefined) belongs -1.55% (inactive); to `CN(C)CCCNC(=O)Cc1ccc(Br)cc1`, 0.791% (inactive).
On to `NCCCC[C@H]1CNC(=O)C(=O)N1CCc1cccc(F)c1`, for which the AC40 was > 35 µM (inactive).
For `O=C(CCc1nc2ccccc2c(=O)[nH]1)N1CCN(c2ccccc2Cl)CC1`, for the setting “at 35 µM (top of the series)”, the activation (HDL uptake increase) was -8.18% (inactive).
Still for that read-out and setting: to `COc1ccc(C(C(=O)NC2CCCCC2)N(C(=O)CCl)c2ccccc2Cl)cc1` (centres undefined) belongs -7.36% (inactive); to `Cc1ccc(S(=O)(=O)N(c2cccc(C)c2)C2CCS(=O)(=O)C2)cc1` (centres undefined), -9.17% (inactive); to `CC(C)NC(=O)c1ccc(CS(=O)(=O)c2ccc(Br)cc2)o1`, -7.98% (inactive).
Same read-out and setting: for `CCOC(=O)C1CCCN(C(=O)c2cc(S(=O)(=O)N3CCCCCC3)ccc2OC)C1` (centres undefined) the value was -9.78% (inactive); for `CSCCC(NC(=O)c1ccco1)C(=O)NCc1ccc(F)cc1` (centres undefined), -8.99% (inactive).
For `CC(C)(C)SCCNC(=O)c1ccc(Cl)c([N+](=O)[O-])c1`, the activation (HDL uptake increase) (at 35 µM (top of the series)) is -10.4% (inactive).
Regarding `CCCCn1c(=N)n(CCOc2ccc(C)cc2)c2ccccc21`, the activation (HDL uptake increase) (at 35 µM (top of the series)) was -6.96% (inactive).
Turning to `CCOc1cc(N2CCOCC2)c(OCC)cc1NC(=O)CSc1cccc[n+]1[O-]`, the activation (HDL uptake increase) (at 35 µM (top of the series)) is -6.79% (inactive).
Still for that read-out and setting: to `Cc1ccc(C2(CCNCc3ccc(N(C)C)cc3)CCOC(C(C)C)C2)cc1` (centres undefined) belongs -1.19% (inactive).
With `COC(=O)Cc1csc(Nc2ccccc2)n1`, the activation (HDL uptake increase) (at 35 µM (top of the series)) is 0.176% (inactive).
Regarding `Cc1ccc(OCC(=O)N(C)CC(=O)NCc2ccco2)c(Br)c1`, the activation (HDL uptake increase) (at 35 µM (top of the series)) is -24.2% (inactive).
Turning to `CCC(C)(C)NC(=O)C(c1cccnc1)N(CCOC)C(=O)Cn1nnc2ccccc21` (centres undefined), the activation (HDL uptake increase) (at 35 µM (top of the series)) was -4.87% (inactive).
As for `O=S(=O)(NCCc1cn2ccccc2n1)c1ccc(-c2ccccc2)cc1`, the activation (HDL uptake increase) (at 35 µM (top of the series)) is -1.66% (inactive).
Still for that read-out and setting: to `COc1ccc(-n2nc(C(=O)NCC(=O)O)c3ccccc3c2=O)cc1` belongs 11.7% (inactive); to `CN1CCN(C(=O)C2=C[C@@H](c3coc4ccccc4c3=O)C[C@@H](OCCCCO)O2)CC1`, -7.43% (inactive).
On to `COCCCNC(=O)CCSc1ccc(Cl)cc1`, for which the activation (HDL uptake increase) (at 35 µM (top of the series)) was -8.45% (inactive).
As for `O=C(CSc1nnc(Cc2cccs2)n1-c1ccccc1)NC1CCCCC1`, the activation (HDL uptake increase) (at 35 µM (top of the series)) is -15.7% (inactive).
With `O=C(CCNC(=O)c1ccccc1Cl)NCC(c1ccc(F)cc1)N1CCOCC1` (centres undefined), the activation (HDL uptake increase) (at 35 µM (top of the series)) is -2.65% (inactive).
On the same count and under the same terms, to `CC(C)CC(CO)N1CCN(C(=O)c2cccc(C(F)(F)F)c2)CCC1=O` (centres undefined) belongs -7.8% (inactive).
Regarding `Cc1ccc(S(=O)(=O)Nc2ccc3c(c2)C(=O)N([C@H](C)CO)C[C@H](C)[C@@H](CN(C)Cc2ccc(-c4ccccc4)cc2)O3)cc1`, the AC40 was 35 µM.
Turning to `CC(Oc1ccccc1)C(=O)Nc1cccc(F)c1` (centres undefined), the activation (HDL uptake increase) (at 35 µM (top of the series)) was 5.9% (inactive).
Still for that read-out and setting: to `O=C(NCc1cnn(-c2ccccc2)c1)C1CCC(=O)N(C2CC2)C1` (centres undefined) belongs -6.78% (inactive); to `CC1(C)CC(=O)C2=C(C1)N(CC1CCCO1)C(=O)C2(O)C(F)(F)F` (centres undefined), 8.29% (inactive).
The same measure, in the same setting: to `O=C(COC(=O)C1CCCCC1)Nc1cccc(Br)c1` belongs -5.26% (inactive).
For the molecule `NCCc1nnc(SCc2ccccc2)o1`, the activation (HDL uptake increase) (at 35 µM (top of the series)) was 5.16% (inactive).
In the case of `CC(=O)NC1(C2CCCCC2=O)CCCCC1` (centres undefined), under “at 35 µM (top of the series)”, the activation (HDL uptake increase) is -3.84% (inactive).
On the same count and under the same terms, to `COc1ccccc1N(C(=O)c1snc(C(N)=O)c1N)C(C(=O)NCCC(C)C)c1ccco1` (centres undefined) belongs 7.43% (inactive); to `C=C1[C@@H](OC(C)=O)[C@]23C[C@@H]1[C@@H](OC(C)=O)CC2[C@]12C4C[C@H]3[C@H]1N(CC)C[C@]4(C)CC[C@@H]2O` (some centres undefined), -3.15% (inactive); to `O=C(CC(c1ccccc1)c1ccco1)Nc1nccs1` (centres undefined), 4.67% (inactive).
Same read-out and setting: for `CN1CCN(CCC(=O)Nc2ccccc2Cl)CC1` the value was -8.52% (inactive); for `O=C(O)CCn1cc(/C=C/C(=O)c2ccc(Cl)cc2)c(-c2ccc(Br)cc2)n1`, -9.53% (inactive); for `Cc1c(/C(O)=C2/C(=O)C(=O)N(CCN3CCOCC3)C2c2cccnc2)cnn1-c1ccccc1` (centres undefined), -0.755% (inactive).
Regarding `CCOc1ccc(CN2CCNC(=O)C2CC(=O)NCC2CCOCC2)cc1` (centres undefined), the AC40 was > 35 µM (inactive).
For the molecule `Cc1ccc(N(CC(=O)NC2CCC(C)CC2)S(=O)(=O)c2cccnc2)cc1` (centres undefined), the activation (HDL uptake increase) (at 35 µM (top of the series)) is 6.17% (inactive).
For `COc1ccc(OC)c(S(=O)(=O)N2CCN(C(=O)CCc3ccccc3)CC2)c1`, the activation (HDL uptake increase) (at 35 µM (top of the series)) was -1.31% (inactive).
For the molecule `Cn1c(=O)oc2cc(S(=O)(=O)NCCN3CCN(c4ccccc4)CC3)ccc21`, the activation (HDL uptake increase) (at 35 µM (top of the series)) was -5.09% (inactive).
For `C=CCn1c(SCC(=O)N(CC)C2CCS(=O)(=O)C2)nnc1-c1ccccc1` (centres undefined), the activation (HDL uptake increase) (at 35 µM (top of the series)) is -7.41% (inactive).
On the same count and under the same terms, to `Cc1cccc(NC(=O)CCC(=O)OCc2ccc(Br)cc2)c1` belongs -7.9% (inactive); to `COc1ccc2oc(C(=O)OCC(=O)Nc3ccc(C(=O)N(C)C)cc3)c(C)c2c1`, -13.1% (inactive); to `O=C(c1ccc(CS(=O)Cc2ccccc2Cl)o1)N1CCN(C2CCCCC2)CC1` (centres undefined), 2.09% (inactive).
For the molecule `CC(C)C[C@@H](CN1CCCC1CN1C(=S)NC[C@@H]1Cc1ccc(O)cc1)N1C[C@H](Cc2ccc(O)cc2)N(CC2CCCCCC2)C1=S` (some centres undefined), the activation (HDL uptake increase) (at 35 µM (top of the series)) is 1.49% (inactive).
On to `CN(C)C(=O)CCc1ccc2c3c([nH]c2c1)[C@]1(CCC2CCCC2)[C@@H](C(=O)N2CCOCC2)C[C@H](CC(=O)NCC24CC5CC(CC(C5)C2)C4)C(=O)N1CC3`, for which the AC40 is > 35 µM (inactive).
As for `O=C(CN1C(=O)NC2(CCCC2)C1=O)Nc1ccc(Cl)c(C(F)(F)F)c1`, the activation (HDL uptake increase) (at 35 µM (top of the series)) was -11.2% (inactive).
As to `O=C(c1ccc(CS(=O)Cc2ccccc2Cl)o1)N1CCN(c2ccccn2)CC1` (centres undefined), the activation (HDL uptake increase) (at 35 µM (top of the series)) is -16.3% (inactive).
The same measure, in the same setting: for `COc1ccccc1N1C(=O)CCC1(C#N)c1ccc(Br)cc1` (centres undefined) the value was 9.71% (inactive).
On the same count and under the same terms, for `CC(C)(C)c1ccccc1NC(=O)CN1C(=O)NC2(CCCCCC2)C1=O` the value was -12.4% (inactive); for `Cc1ccc(C2(CC(=O)N3CCCC3)CCOC(C(C)C)C2)cc1` (centres undefined), -13.4% (inactive).
With `Nc1nonc1-n1nnc(C(=O)N/N=C/c2cccs2)c1CSc1ccccc1`, the activation (HDL uptake increase) (at 35 µM (top of the series)) is -1.92% (inactive).
Still for that read-out and setting: for `CN1CCN(C(=O)C2CCCN(S(=O)(=O)c3ccc(Br)cc3)C2)CC1` (centres undefined) the value was -5.87% (inactive).
On the same count and under the same terms, for `O=C1CCCCN1CCC(=O)N1CCCC(Nc2ccccc2)C1` (centres undefined) the value was 4.76% (inactive).
`O=C(Cc1ccc(S(=O)(=O)N2CCOCC2)s1)OCc1ccc(Cl)cc1`: where the note is “at 35 µM (top of the series)”, the activation (HDL uptake increase) is -16.7% (inactive).
The same measure, in the same setting: for `Cc1ccc(C2/C(=C(\O)c3ccc4c(c3)OCCO4)C(=O)C(=O)N2Cc2cccnc2)cc1` (centres undefined) the value was -7.31% (inactive).
On the same count and under the same terms, for `C=CCOC(=O)C1=C[C@H](c2ccc(C(F)(F)F)cc2)C[C@H](OCCCCO)O1` the value was -10.3% (inactive).
`O=C(NCCCc1ccccc1)c1ccc(CS(=O)Cc2ccc(Cl)cc2)o1` (centres undefined): under “at 35 µM (top of the series)”, the activation (HDL uptake increase) is 5.61% (inactive).
In the case of `CC(C)C[C@@H](CN1CCCC1CN1C(=S)NC[C@@H]1Cc1ccc(O)cc1)N1C[C@H](Cc2ccc(O)cc2)N(CC2CCCCC2)C1=S` (some centres undefined), the activation (HDL uptake increase) (at 11 µM (top of the series)) was -10.2% (inactive).
With `O=C1CN(C(=O)COC(=O)C2=COCCO2)c2ccccc2N1`, where the note is “at 35 µM (top of the series)”, the activation (HDL uptake increase) is 7.62% (inactive).
`O=C(O)CCc1nnc(SCC(=O)Nc2ccc(Br)cc2)[nH]c1=O`: the activation (HDL uptake increase) (at 35 µM (top of the series)) is -2.46% (inactive).
Still for that read-out and setting: to `COCCCNC(=O)C1CCC(CNS(=O)(=O)c2ccc3c(c2)N(C(C)=O)CCO3)CC1` (centres undefined) belongs 7.18% (inactive).
With `CCN(CC)C(=O)C1CC(=O)N(c2ccc(OC)cc2)C1c1ccc(OC)cc1` (centres undefined), under “at 35 µM (top of the series)”, the activation (HDL uptake increase) is -8.42% (inactive).
Turning to `CN1CCN(C(=O)C2CCN(S(=O)(=O)c3ccc4c(c3)oc(=O)n4C)CC2)CC1`, the activation (HDL uptake increase) (at 35 µM (top of the series)) was -0.287% (inactive).
On the same count and under the same terms, for `CCOc1ccc(N(C(=O)c2ccc3c(c2)OCO3)C2C=CS(=O)(=O)C2)cc1` (centres undefined) the value was -7.61% (inactive).
Turning to `CCCC(=O)OCC(=O)Nc1ccc(OC(F)F)cc1`, the activation (HDL uptake increase) (at 35 µM (top of the series)) is 1.74% (inactive).
For `O=C(NCc1cccc(Cl)c1)c1ccc(CS(=O)Cc2ccccc2Cl)o1` (centres undefined), the activation (HDL uptake increase) (at 35 µM (top of the series)) is 0.636% (inactive).
The same measure, in the same setting: to `CCOC(=O)C1=C(COC(=O)[C@H](C)NS(=O)(=O)c2ccc(NC(C)=O)cc2)NC(=O)NC1C` (some centres undefined) belongs -9.73% (inactive).
As to `CCOC(=O)C(NC(=O)CC(C)C)(Nc1sc2c(c1C(N)=O)CCCC2)C(F)(F)F` (centres undefined), the AC40 is > 35 µM (inactive).
Take `COCCNC(=O)C1(C)C=CC2(CCCCC2)N1C(=O)c1ccccc1` (centres undefined): the activation (HDL uptake increase) (at 35 µM (top of the series)) was 3.23% (inactive).
